Assay results: patent publication US11993640B2, “Treating inflammatory lung disease” (United States Government as represented by the Department …, priority 2019, dated 2024)
Non-standard residues stand in square brackets, D forms with d. Residues, ends and D or L forms follow the SMILES beside them. *: point of attachment. Phenylacetyl(2,3,4,5,6-F5) = O=C(Cc1c(F)c(F)c(F)c(F)c1F)*; Phe(F5) = N[C@@H](Cc1c(F)c(F)c(F)c(F)c1F)C(=O)O; hArg = N=C(N)NCCCC[C@H](N)C(=O)O; 12Ado = NCCCCCCCCCCCC(=O)O; Nle = CCCC[C@H](N)C(=O)O; Orn = NCCC[C@H](N)C(=O)O; Abu = CC[C@H](N)C(=O)O; PhAc = O=C(Cc1ccccc1)*

Key:
[1] = system: C57Bl/6J mice treated with bleomycin; assay: Bleomycin lung injury model, lung histopathology scores (inflammation, modified Ashcroft fibrosis); assay type: in vivo, mouse
Experimental: Experimental animals. 8-week old C57Bl/6J male mice (The Jackson Laboratory, Bar Harbor, ME) were used in these experiments. Mice weighed about 26 grams at the start. Mice were randomly allocated to the experimental groups and housed in identical filter top cages in a ventilated rack. Mice were exposed to a 12-hour light/dark cycle and had free access to standard laboratory chow and water.
Bleomycin and GHRH-R antagonist treatment. Mice were treated with 0.8 units of bleomycin (Bleomycin for Injection USP, Hospira, Lake Forest, IL) intraperitoneally (IP) on days 1, 3, 7, 10, 14 and 21 (Collins S, Chan-Li Y, Oh M, Vigeland C, Limjunyawong N, Mitzner W, Powell J D, Horton M R (2016). JCI Insight 1(4):1-13). Mice (randomly assigned) were simultaneously treated subcutaneously (sc) with MIA-602 (5 μg/day) or its vehicle (100 μL/day). MIA-602 was dissolved in DMSO (ACS grade; Sigma-Aldrich) and diluted 1:500 in normal saline for daily sc injection on days 0-21.
Tissue preparations. Mice were killed by CO2 inhalation before any treatment, or on days 14 or 28 for micro-CT scans of lungs and harvesting of lung tissue (Vande Velde G, Poelmans J, De Langhe E, Hillen A, Vanoirbeek J, Himmelreich U, Lories R (2016). Dis Model Mech 9:91). The right mainstem bronchus was ligated and the right lung removed and frozen at −80° C. for hydroxyproline (HP) assays. The left lung was filled with 10% buffered formalin at ˜25 cm H2O pressure, the bronchus ligated, and the lung fixed in formalin. Fixed lungs were embedded in wax and 5 μm sections stained with hematoxylin and eosin (H&E) or Masson's trichrome stain.
Lung histopathology. Fibrosis was quantified in trichrome-stained sections using a modification of the Ashcroft score that describes grades of fibrosis. Inflammation in lung tissue was quantified in H&E stained sections (Hubner R, Gitter W, El Mokhtari N, Mathiak M, Both M, Bolte H, Freitag-Wolf S, Bewig B (2008). Biotechniques 44:507-517).
Data analysis. Data are reported as arithmetic means±SEM or SD as indicated. […]

[2] = system: SK-OV-3 cells; assay: In vitro cell viability, ovarian cancer SK-OV-3; assay type: cell-based, human; conditions: * at concentration of 2 μM for 72 h; Table 3B
Experimental: The inhibitory effects of the various synthesized GHRH antagonists were tested in cell proliferation assays in various human cancer cell lines including stomach cancer (KATOIII, N87), colon cancer (HT-29), urothelial cancer (J82, RT4), pancreatic cancer (PANC-1, CFPAC-1), prostatic cancer (PC3), breast cancer (MX-1, HCC1806), ovarian cancer (SK-OV-3, OVCAR-3) and lung cancer (HCC827, H460).
Cell culture. Human cancer cell lines including pancreatic (PANC-1 and CFPAC-1), lung (HCC827 and H460), stomach (NCI-N87 and KATOIII), urothelial (J82, RT4), prostatic (PC3), breast (MX-1 and HCC 1806), colorectal (HT-29), and ovarian (SK-OV-3 and OVCAR-3) were obtained from the American Type Culture Collection (ATCC) and cultured at 37° C. in a humidified 95% air/5% CO2 atmosphere in the medium recommended by ATCC.
In vitro cell viability. Cell viability was analyzed as follows: cancer cells including pancreatic (PANC-1 and CFPAC-1), lung (HCC827 and H460), stomach (NCI-N87 and KATOIII), urothelial (J82, RT4), prostatic (PC3) and breast (MX-1 and HCC 1806), colorectal (HT-29) and ovarian (SK-OV-3 and OVCAR-3) were grown on 96 well plates to ˜60% confluence, the cells were starved for 24 h in culture medium containing 0.5% FBS. […] Cell viability was measured using CellTiter 96 aqueous one solution kit (Promega). […]

[3] = system: rat pituitary cells; assay: Inhibition of GHRH(1-29)NH2-stimulated GH release from rat pituitary cells (ELISA); assay type: cell-based; conditions: analog 20 nM
Experimental: In vitro assessment of the antagonistic activity of GHRH analogs. Rats were decapitated and pituitaries were collected in pre-warmed HBSS (Hanks' Balanced Salt Solution). Tissue was then cut into small pieces and digested in HBSS medium containing 3% BSA, 50 μg/ml gentamycin and 0.5% collagenase for 50 minutes at 37° C. Cells were further dispersed by pipetting and passed through a 100 μm cell strainer with the addition of DMEM containing 50 μg/ml gentamycin, 10% horse serum and 2.5% FBS (growth medium). Cells were harvested at 475×g for 2 minutes, resuspended in fresh growth medium and seeded onto poly-D-lysine-coated 24-well plates (7 pituitaries/plate). Cells were left to recover for 4 days. Growth medium was then replaced with serum-free DMEM for 4 hours and GHRH analogs (at concentration of 20 nM) were added in DMEM containing 0.1% BSA for 30 minutes. Cells were replenished with medium containing the same concentration of the analogs and 1 nM GHRH(1-29)NH2 for 30 minutes. Medium from this step was collected, centrifuged at 800 g for 3 minutes and GH concentration was determined by ELISA (ALPCO Diagnostics, Mill Valley, CA) according to the manufacturer's instruction.

[4] = day 28, bleomycin-treated mice, MIA-602 5 μg/day sc days 1-21

Row | SMILES | Lung inflammatory changes and fibrosis, histopathology ([1]; bleomycin-treated mice, days 14 and 28) | Lung fibrosis histopathologic score, 5%-95% CI [1, 4] | Lung fibrosis histopathologic score, range [1, 4] | In vitro relative inhibitory potency in comparison to MIA-602, SKOV-3 [2] | Inhibitory effect on the release of GH compared with MIA-602 [3]
1 | CCCC[C@H](NC(=O)[C@@H](NC(=O)[C@H](CC(=O)O)NC(=O)[C@H](CCC(N)=O)NC(=O)[C@H](CC(C)C)NC(=O)[C@H](CC(C)C)NC(=O)[C@H](CCCN)NC(=O)[C@H](Cc1c[nH]cn1)NC(=O)[C@H](C)NC(=O)[C@H](CO)NC(=O)[C@H](CC(C)C)NC(=O)[C@H](CCC(N)=O)NC(=O)[C@H](CC)NC(=O)[C@H](CC(C)C)NC(=O)[C@@H](NC(=O)[C@H](CCCN)NC(=O)[C@H](Cc1c[nH]cn1)NC(=O)[C@H](Cc1ccc(OC)cc1)NC(=O)[C@H](CCCCNC(=N)N)NC(=O)[C@H](C)NC(=O)[C@@H](NC(=O)[C@H](Cc1c(F)c(F)c(F)c(F)c1F)NC(=O)[C@@H](NC(=O)[C@H](C)NC(=O)[C@H](CC(=O)O)NC(=O)[C@@H](CCCNC(=N)N)NC(=O)[C@H](Cc1ccc(O)cc1)NC(=O)CCCCCCCCCCCNC(=O)Cc1ccccc1)[C@@H](C)CC)[C@@H](C)O)C(C)C)[C@@H](C)CC)C(=O)N[C@H](CCCNC(=N)N)C(=O)N[C@@H](CCCCNC(=N)N)C(N)=O [MIA-602, PhAC-Ada, Tyr D-Arg, Asp, Ala, Ile, 5FPhe, Thr, Ala, Har, Tyr(Me), His, Orn, Val, Leu, Abu, Gin, Leu, Ser, Ala, His, Orn, Leu, Leu, Gin, Asp, Ile, Nle, D-Arg, Har NH2, reference compound] ({PhAc-12Ado}-Y[dR]DAI[Phe(F5)]TA[hArg]Y(Me)H[Orn]VL[Abu]QLSAH[Orn]LLQDI[Nle][dR][hArg]-NH2) | Both inflammatory changes and fibrosis were decreased | 1.1-2.9 | 1.0-3.0 | 1 | –
2 | CCCC[C@H](NC(=O)[C@@H](NC(=O)[C@H](CC(=O)O)NC(=O)[C@H](CCC(N)=O)NC(=O)[C@H](CC(C)C)NC(=O)[C@H](CC(C)C)NC(=O)[C@H](CCCCN)NC(=O)[C@H](CCCNC(=N)N)NC(=O)[C@H](C)NC(=O)[C@H](CO)NC(=O)[C@H](CC(C)C)NC(=O)[C@H](CCC(N)=O)NC(=O)[C@H](CC)NC(=O)[C@H](CC(C)C)NC(=O)[C@@H](NC(=O)[C@H](CCCCN)NC(=O)[C@H](CCCNC(=N)N)NC(=O)[C@H](Cc1ccc(OC)cc1)NC(=O)[C@H](CCCCNC(=N)N)NC(=O)[C@H](C)NC(=O)[C@@H](NC(=O)[C@H](Cc1c(F)c(F)c(F)c(F)c1F)NC(=O)[C@@H](NC(=O)[C@H](C)NC(=O)[C@H](CC(=O)O)NC(=O)[C@@H](CCCNC(=N)N)NC(=O)[C@H](Cc1ccc(O)cc1)NC(=O)CCCCCCCCCCCNC(=O)Cc1c(F)c(F)c(F)c(F)c1F)[C@@H](C)CC)[C@@H](C)O)C(C)C)[C@@H](C)CC)C(=O)N[C@H](CCCNC(=N)N)C(=O)N[C@@H](CCCCNC(=N)N)C(=O)NC [AVR-235] ({Phenylacetyl(2,3,4,5,6-F5)-12Ado}-Y[dR]DAI[Phe(F5)]TA[hArg]Y(Me)RKVL[Abu]QLSARKLLQDI[Nle][dR][hArg]-NHMe) | – | – | – | – | higher inhibitory effects than MIA-602
